Each structure is given as a SMILES string. Where a name gives a salt, the structure may show the parent alone.

The target in the first assay is LSD1 (Homo sapiens, UniProt O60341). The assay is described as follows: Biochemical assay for LSD1 activity (LSD1 demethylase TR-FRET).
Details: not given
As usually defined, the IC50 is the concentration at which inhibition is half-maximal. On to `CC(=Cc1ccc(C#N)cc1)C1CC1N` (stereo not shown) [Compound 129, 4-(2-(2-aminocyclopropyl)prop-1-en-1-yl)benzonitrile Hydrochloride], for which the IC50 is above 10000 nM.

Still in this assay, the particulars now being: Table 5; biotinylated H3K4me1 peptide, 50 minutes at room temperature, TR-FRET; read-out: LSD1_Pep_TR-FRET_1.0 (IC50 T50).
Consider `O=C(O)c1ccc(CN2CCC(CNC3CC3/C=C/c3ccccc3)CC2)cc1` (stereo not shown) [Compound 101, (E)-4-((4-(((2-styrylcyclopropypamino)methyl)piperidin-1-yl)methyl)benzoic Acid Dihydrochloride], for which the concentration for half-maximal inhibition (IC50) was in the range of 100 to 1000 nM.

Regarding `O=C(O)CCN1CCC(CNC2CC2/C=C/c2ccccc2)CC1` (stereo not shown) [Compound 105, (E)-3-(4-(((2-styrylcyclopropyl)amino)methyl)piperidin-1-yl)propanoic acid], the IC50 lay within 100 to 1000 nM.

`C(=C\C1CC1NCC1CCN(Cc2ccccc2)CC1)/c1ccccc1` (stereo not shown) [Compound 106]: the 50% inhibitory concentration (IC50) was 100 to 1000 nM.

`O=C(O)CN1CCC(CNC2CC2/C=C/c2ccccc2)CC1` (stereo not shown) [Compound 111, (E)-3-(4-(((2-styrylcyclopropyl)amino)methyl)piperidin-1-yl)acetic acid]: the 50% inhibitory concentration (IC50) is below 100 nM.

With `CC1(N)CC1/C=C/c1ccccc1` (stereo not shown) [Compound 112, 1-methyl-2-((E)-styryl)cyclopropanamine], the IC50 lay in the range of 100 to 1000 nM.

Take `CCS(=O)(=O)CCN1CCC(CNC2CC2/C=C/c2ccccc2)CC1` (stereo not shown) [Compound 113]: the IC50 is below 100 nM.

Still in this assay, the particulars now being: Table 6; biotinylated H3K4me1 peptide, 50 minutes at room temperature, TR-FRET; read-out: LSD1_Pep_TR-FRET_1.0 (IC50 T50).
As for `C/C(=C\c1ccccc1)[C@@H]1C[C@H]1N[C@H]1CC[C@@H](NCCC(N)=O)CC1` (single isomer, unassigned) [Compound 152, 3-(((cis)-4-(((trans)-2-((E)-1-phenylprop-1-en-2-yl)cyclopropyl)amino)cyclohexyl)amino)propanamide bis(trifluoroacetic acid) salt], the IC50 was below 100 nM.

Turning to `C/C(=C\c1ccccc1)[C@@H]1C[C@H]1N[C@H]1CC[C@H](NCCC#N)CC1` (single isomer, unassigned) [Compound 155, 3-(((trans)-4-(((trans)-2-((E)-1-phenylprop-1-en-2-yl)cyclopropyl)amino)cyclohexyl)amino)propanenitrile bis(trifluoroacetic acid) salt], the IC50 is below 100 nM.

For `C/C(=C\c1ccccc1)[C@@H]1C[C@H]1N[C@H]1CC[C@@H](NCCC#N)CC1` (single isomer, unassigned) [Compound 156, 3-(((cis)-4-(((trans)-2-((E)-1-phenylprop-1-en-2-yl)cyclopropyl)amino)cyclohexyl)amino)propanenitrile bis(trifluoroacetic acid) salt], the IC50 was below 100 nM.

For the compound `CC/C(=C\c1ccccc1)[C@@H]1C[C@H]1N[C@H]1CC[C@H](NCC(C)(C)C#N)CC1` (single isomer, unassigned) [Compound 157, 2,2-dimethyl-3-(((trans)-4-(((trans)-2-((E)-1-phenylbut-1-en-2-yl)cyclopropyl)amino)cyclohexyl)amino)propanenitrile bis(trifluoroacetic acid salt)], the IC50 is below 100 nM.

As to `CC/C(=C\c1ccccc1)[C@@H]1C[C@H]1N[C@H]1CC[C@@H](NCC(C)(C)C#N)CC1` (single isomer, unassigned) [Compound 158, 2.2-dimethyl-3-(((cis)-4-(((trans)-2-((E)-1-phenylbut-1-en-2-yl)cyclopropyl)amino)cyclohexyl)amino)propanenitrile bis(trifluoroacetic acid salt)], the IC50 was below 100 nM.

With `CC/C(=C\c1ccccc1)[C@@H]1C[C@H]1N[C@H]1CC[C@H](NCCO)CC1` (single isomer, unassigned) [Compound 159, 2-(((trans)-4-(((trans)-2-((E)-1-phenylbut-1-en-2-yl)cyclopropyl)amino)cyclohexyl)amino)ethan-1-ol bis(trifluoroacetic acid salt)], the IC50 was below 100 nM.

Turning to `CC/C(=C\c1ccccc1)[C@@H]1C[C@H]1N[C@H]1CC[C@H](NCc2c(OC)cc(C)[nH]c2=O)CC1` (single isomer, unassigned) [Compound 160, 4-methoxy-6-methyl-3-((((trans)-4-(((trans)-2-((E)-1-phenylbut-1-en-2-yl)cyclopropyl)amino)cyclohexyl)amino)methyl)pyridin-2(1H)-one bis(trifluoroacetic acid salt)], the IC50 was below 100 nM.

Regarding `CC/C(=C\c1ccccc1)[C@@H]1C[C@H]1N[C@H]1CC[C@H](NCC2(CO)COC2)CC1` (single isomer, unassigned) [Compound 161, (3-((((trans)-4-(((trans)-2-((E)-1-phenylbut-1-en-2-yl)cyclopropyl)amino)cyclohexyl)amino)methyl)oxetan-3-yl)methanolbis(trifluoroacetic acid salt)], the IC50 was below 100 nM.

As for `CC/C(=C\c1ccccc1)[C@@H]1C[C@H]1N[C@H]1CC[C@H](NCCOCC(=O)O)CC1` (single isomer, unassigned) [Compound 162, 2-(2-(((trans)-4-(((trans)-2-((E)-1-phenylbut-1-en-2-yl)cyclopropyl)amino)cyclohexyl)amino)ethoxy)acetic acidbis(trifluoroacetic acid salt)], the IC50 is below 100 nM.

Consider `CCC1(NCC2CCNCC2)CC1/C(C)=C/c1ccccc1` (stereo not shown) [Compound 173, 1-ethyl-2-((E)-1-phenylprop-1-en-2-yl)-N-(piperidin-4-ylmethyl)cyclopropanamine Dihydrochloride], for which the IC50 was below 100 nM.

As for `CCC1(NC2CCNCC2)CC1/C(C)=C/c1ccccc1` (stereo not shown) [Compound 174, bis(trifluoroacetic Acid) Salt], the IC50 was below 100 nM.

On to `Fc1ccccc1/C=C/C1CC1NCC1CCNCC1` (stereo not shown) [Compound 186, (E)-2-(2-fluorostyryl)-N-(piperidin-4-ylmethyl)cyclopropan-1-amine Dihydrochloride], for which the IC50 is below 100 nM.

With `COc1ccc(/C=C(\C)[C@@H]2C[C@H]2N)cc1` [compound 130, 2,2,2-trifluoroacetate], the IC50 lay within 1000 to 10000 nM.

Turning to `C/C(=C\c1ccccc1)[C@@H]1C[C@H]1NC1CCN(Cc2ccc(C(=O)O)cc2)CC1` [compound 192], the IC50 is 100 to 1000 nM.

Staying with this assay, now noted: Table 7; biotinylated H3K4me1 peptide, 50 minutes at room temperature, TR-FRET; read-out: LSD1_Pep_TR-FRET_1.0 (IC50 T50).
For the compound `CC/C(=C\c1ccccc1)[C@@H]1C[C@H]1NC1CC2(C1)CN(Cc1ccc(C(=O)O)cn1)C2` (single isomer, unassigned) [Compound 249, 6-((6-(((1R,2S or 1S,2R)-2-(E)-1-phenylbut-1-en-2-yl)cyclopropyl)amino)-2-azaspiro[3.3]heptan-2-yl)methyl)nicotinic Acid Bis Trifluoroacetate], the IC50 was below 100 nM.

Consider `CC/C(=C\c1ccccc1)[C@@H]1C[C@H]1NC1CC2(C1)CN(Cc1ccc(C(=O)O)cc1)C2` (single isomer, unassigned) [Compound 250], for which the IC50 is below 100 nM.

Regarding `CC/C(=C\c1ccccc1)[C@@H]1C[C@H]1NC1CC2(C1)CN(Cc1ccc(C(=O)O)nc1)C2` (single isomer, unassigned) [Compound 251], the IC50 was below 100 nM.

On to `CC/C(=C\c1ccccc1)[C@@H]1C[C@H]1NC1CC2(C1)CN(Cc1ccc(-c3nnn[nH]3)cc1)C2` (single isomer, unassigned) [Compound 252], for which the IC50 was below 100 nM.

For the compound `CC/C(=C\c1ccccc1)[C@@H]1C[C@H]1NC1CC2(C1)CN(Cc1ccc(C(=O)O)cc1C)C2` (single isomer, unassigned) [Compound 254], the IC50 was below 100 nM.

As to `CC/C(=C\c1ccccc1)[C@@H]1C[C@H]1NC1CC2(C1)CN(Cc1ccc(C(=O)O)c(C)c1)C2` (single isomer, unassigned) [Compound 255], the IC50 was below 100 nM.

`CC/C(=C\c1ccccc1)[C@@H]1C[C@H]1NC1CC2(C1)CN(Cc1cnc(C(=O)O)cn1)C2` (single isomer, unassigned) [Compound 256]: the IC50 was below 100 nM.

As for `CC/C(=C\c1ccccc1)[C@@H]1C[C@H]1N[C@H]1CC[C@H](NCc2ccc(C(=O)O)nc2)CC1` (single isomer, unassigned) [Compound 260, 5-((((trans)-4-(((1R,2S or 1S,2R)-2-((E)-1-phenylbut-1-en-2-yl)cyclopropyl)amino)cyclohexyl)amino)methyl)picolinic acid bis trifluoroacetate], the IC50 is below 100 nM.

Take `CC/C(=C\c1ccccc1)[C@@H]1C[C@H]1NC1CC2(C1)CN(CCC(=O)O)C2` (single isomer, unassigned) [Compound 266, 3-(6-(((1R,2S or 1S,2R)-2-((E)-1-phenylbut-1-en-2-yl)cyclopropyl)amino)-2-azaspiro[3.3]heptan-2-yl)propanoic Acid (Single Stereoisomer)]: the IC50 is below 100 nM.

For `CC/C(=C\c1ccccc1)[C@@H]1C[C@H]1NC1CC2(C1)CN(CC(N)=O)C2` (single isomer, unassigned) [Compound 268, 2-(6-(((1R,2S or 1S,2R)-2-(E)-1-phenylbut-1-en-2-yl)cyclopropyl)amino)-2-azaspiro[3.3]heptan-2-yl)acetamide Bis Trifluoroacetate (Single Stereoisomer)], the IC50 was below 100 nM.

(Values after patent US10526287B2, “LSD1 inhibitors and uses thereof” (Constellation Pharmaceuticals, Inc., priority 2015, dated 2020).)
